Results: ChEMBL document CHEMBL1833912, “Discovery of PF-184563, a potent and selective V1a antagonist for the treatment of dysmenorrhoea. The influence of compound flexibility on microsomal stability” (Bioorg Med Chem Lett, 2011)

What was measured:
Type in all cases: ADME, organism-based
Details in all cases: in vivo
[1] = Tmax in Sprague-Dawley rat at 2 mg/kg, iv and po; parameters: dose 2 mg/kg, route oral
[2] = Cmax in Sprague-Dawley rat at 2 mg/kg, iv and po; parameters: dose 2 mg/kg, route oral
[3] = Bioavailability in Sprague-Dawley rat at 2 mg/kg, iv and po
[4] = system: Rattus norvegicus; assay: Volume of distribution in Sprague-Dawley rat at 2 mg/kg, iv and po; parameters: dose 2 mg/kg, route oral

## CN1Cc2cc(Cl)ccc2-n2c(nnc2C2CCN(c3ccccn3)CC2)C1
[1]
  Tmax: 48 min
[2]
  Cmax: 97 ng/mL
[3]
  bioavailability: 34%
[4]
  Vd: 2.7 L/kg
